# In patent US6080772A, “Thiazole compounds and methods of modulating signal transduction” (Sugen, Inc., priority 1997, dated 2000):
# Test system: insulin receptor (IR)
# Test: Phosphotyrosine enzyme linked immunosorbent assay: pTyr on insulin receptor in NIH3T3 cells over-expressing human IR (H25 cells)
# Conditions: Table III; 100, 50 and 25 μM
row,Compound,increase in PTYR [%]
1,O=[N+]([O-])c1cnc(Sc2nnc(NC3CCCCC3)s2)s1 [Compound 75],47

# Same assay, conditions: Table III; at 50 μM
row,Compound,increase (PTYR) [%]
1,"CC(=O)Nc1ccc(-n2nnnc2Sc2ncc([N+](=O)[O-])s2)cc1 [Compound 31, 1-(4-Acetamidophenyl)-5-[(5-nitrothiazol-2-yl)mercapto]tetrazole]",49

# Same assay, conditions: Table III; at 100 μM
row,Compound,increase in PTYR [%]
1,"Nc1ccc(-n2nnnc2Sc2ncc([N+](=O)[O-])s2)cc1 [Compound 32, 1-(4-Aminophenyl)-5-[(5-nitrothiazol-2-yl)mercapto]tetrazole]",40
2,"COc1ccc2nc(Sc3ncc([N+](=O)[O-])s3)[nH]c2c1 [Compound 45, 5-Methoxy-2-[(5-nitrothiazol-2-yl)mercapto]benzimidazole]",46

# Same assay, conditions: read-out: ACTIVITY EC50
row,Compound,EC50 [µM]
1,"O=[N+]([O-])c1ccc(-c2nnc(Sc3ncc([N+](=O)[O-])s3)[nH]2)o1 [Compound 78, 2-(2-Nitrofuran-5-yl)-5-[(5-nitrothiazol-2-yl)mercapto]-1,2,4-triazole]",36
2,"CCNC(=O)n1c(Sc2ncc([N+](=O)[O-])s2)nc2cc([N+](=O)[O-])ccc21 [Compound 18, 1-Ethylaminocarbonyl-5-nitro-2-[(5-nitrothiazol-2-yl)mercapto]benzimidazole]",16

# Same assay, conditions: read-out: ACTIVITY EC50; Table III; […]
row,Compound,EC50 [µM]
1,"CCCCSc1nnc(Sc2ncc([N+](=O)[O-])s2)s1 [Compound 23, 2-n-Butylmercapto-5-[(5-nitrothiazol-2-yl)mercapto]-1,3,4-thiadiazole]",> 100
2,"O=[N+]([O-])c1cnc(Sc2nnc(Nc3ccccc3)s2)s1 [Compound 73, 2-[(5-Nitrothiazol-2-yl)mercapto]-5-phenylamino-1,3,4-thiadiazole]",10
3,"Cc1nnc(Sc2ncc([N+](=O)[O-])s2)s1 [Compound 60, 2-Methyl-5-[(5-nitrothiazol-2-yl)mercapto]-1,3,4-thiadiazole]",> 100
4,"O=[N+]([O-])c1cnc(Sc2nccn2Cc2ccccc2)s1 [Compound 16, 1-Benzyl-2-[(5-nitrothiazol-2-yl)mercapto]imidazole]",27
5,"O=C(Sc1nnc(Sc2ncc([N+](=O)[O-])s2)s1)c1ccccc1 [Compound 65, 2-Benzoylmercapto-5-[(5-nitrothiazol-2-yl)mercapto]-1,3,4-thiadiazole]",> 25
6,"Cc1ccc(S(=O)(=O)n2c(Sc3ncc([N+](=O)[O-])s3)nc3ccccc32)cc1 [Compound 17, 1-Tosyl-2-[(5-nitrothiazol-2-yl)mercapto]benzimidazole]",> 25
7,Cc1nc2nc(Sc3ncc([N+](=O)[O-])s3)[nH]c2cc1Br [Compound 19],> 100
8,"Nc1nnc(Sc2ncc([N+](=O)[O-])s2)s1 [Compound 59, 2-Amino-5-[(5-nitrothiazol-2-yl)mercapto]-1,3,4-thiadiazole]",> 100
9,"Cn1c(=O)n(C)c2nc(Sc3ncc([N+](=O)[O-])s3)ncc21 [Compound 36, 1,3-Dimethyl-5-[(5-nitrothiazol-2-yl)mercapto]imidazo[4,5-d]pyrimid-2-one]",> 100
10,"CCOC(=O)c1nc(Sc2ncc([N+](=O)[O-])s2)n(C2CCCCC2)c1C(=O)OCC [Compound 47, 1-Cyclohexyl-4,5-di(ethoxycarbonyl)-2-[(5-nitrothiazol-2-yl)mercapto]imidazole]",15.7
11,"O=[N+]([O-])c1cnc(Sc2nnc(SCc3cccc(C(F)(F)F)c3)s2)s1 [Compound 63, 2-[(5-Nitrothiazol-2-yl)mercapto]-5-[3-(trifluoromethyl)benzylmercapto]-1,3,4-thiadiazole]",75
12,"CCOC(=O)c1c[nH]c(Sc2ncc([N+](=O)[O-])s2)n1 [Compound 43, 4-Ethoxycarbonyl-2-[(5-nitrothiazol-2-yl)mercapto]imidazole]",8.5
13,O=[N+]([O-])c1cnc(Sc2nnc(NC3CCCCC3)s2)s1 [Compound 75],> 100
14,"O=C(O)Cn1nnnc1Sc1ncc([N+](=O)[O-])s1 [Compound 58, 1-Carboxymethyl-5-[(5-nitrothiazol-2-yl)mercapto]tetrazole]",40
15,"CCSc1nnc(Sc2ncc([N+](=O)[O-])s2)s1 [Compound 28, 2-Ethylmercapto-5-[(5-nitrothiazol-2-yl)mercapto]-1,3,4-thiadiazole]",35
16,"Nc1ccc(-n2nnnc2Sc2ncc([N+](=O)[O-])s2)cc1 [Compound 29, 1-(4-Aminophenyl)-5-[(5-nitrothiazol-2-yl)mercapto]tetrazole]",> 100
17,O=[N+]([O-])c1cnc(Sc2nc3ncccc3[nH]2)s1 [Compound 20],15
18,"O=[N+]([O-])c1cnc(Sc2nnnn2-c2ccc(O)cc2)s1 [Compound 55, 1-(4-Hydroxyphenyl)-5-[(5-nitrothiazol-2-yl)mercapto]tetrazole]",41
19,"CC(=O)Nc1ccc(-n2nnnc2Sc2ncc([N+](=O)[O-])s2)cc1 [Compound 31, 1-(4-Acetamidophenyl)-5-[(5-nitrothiazol-2-yl)mercapto]tetrazole]",> 100
20,"Cc1ccc(Nc2nnc(Sc3ncc([N+](=O)[O-])s3)s2)c(C)c1 [Compound 71, 2-(2,4-Dimethylphenylamino)-5-[(5-nitrothiazol-2-yl)mercapto]-1,3,4-thiadiazole]",24
21,"CCn1nnnc1Sc1ncc([N+](=O)[O-])s1 [Compound 57, 1-Ethyl-5-[(5-nitrothiazol-2-yl)mercapto]tetrazole]",81
22,"NS(=O)(=O)c1ccc(-n2nnnc2Sc2ncc([N+](=O)[O-])s2)cc1 [Compound 33, 1-(4-Aminosulfonylphenyl)-5-[(5-nitrothiazol-2-yl)mercapto]tetrazole]",> 100

row,Compound,EC50 [µM]
1,"CSc1nnc(Sc2ncc([N+](=O)[O-])s2)s1 [Compound 61, 2-Methylmercapto-5-[(5-nitrothiazol-2-yl)mercapto]-1,3,4-thiadiazole]",32
2,"O=[N+]([O-])c1cnc(Sc2nc3ccc(S(=O)(=O)O)cc3[nH]2)s1 [Compound 51, 2-[(5-nitrothiazol-2-yl)mercapto]-5-sulfobenzimidazole]",10.3
3,"Cc1cc(C)c(Nc2nnc(Sc3ncc([N+](=O)[O-])s3)s2)c(C)c1 [Compound 72, 2-[(5-Nitrothiazol-2-yl)mercapto]-5-(2,4,6-trimethylphenylamino)-1,3,4-thiadiazole]",20
4,"O=[N+]([O-])c1cnc(Sc2nnc(Sc3nnc(Sc4cc(O)ccc4O)s3)s2)s1 [Compound 27, 2-(2,5-Dihydroxyphenylmercapto)-5-[[2-[(5-nitrothiazol-2-yl)mercapto]-1,3,4-thiadiazol-5-yl]mercapto]-1,3,4-thiadiazole]",96
5,"Nc1nnc(Sc2ncc([N+](=O)[O-])s2)s1 [Compound 38, 2-Amino-5-[(5-nitrothiazol-2-yl)mercapto]-1,3,4-thiadiazole]",15.6
6,"Cc1ccc(Nc2nnc(Sc3ncc([N+](=O)[O-])s3)s2)cc1 [Compound 69, 2-(4-Methylphenylamino)-5-[(5-nitrothiazol-2-yl)mercapto]-1,3,4-thiadiazole]",> 100
7,"O=[N+]([O-])c1cnc(Sc2nc3cc(C(F)(F)F)cc(Cl)c3[nH]2)s1 [Compound 41, 4-Chloro-2-[(5-nitrothiazol-2-yl)mercapto]-6-(trifluoromethyl)benzimidazole]",10
8,"CC(C)n1c(Sc2ncc([N+](=O)[O-])s2)nc2cc(Cl)ccc21 [Compound 52, 5-Chloro-1-isopropyl-2-[(5-nitrothiazol-2-yl)mercapto]benzimidazole]",> 50
9,"Cn1nnnc1Sc1ncc([N+](=O)[O-])s1 [Compound 56, 1-Methyl-5-[(5-nitrothiazol-2-yl)mercapto]tetrazole]",27
10,"O=[N+]([O-])c1cnc(Sc2nc3cc(C(F)(F)F)cc(Br)c3[nH]2)s1 [Compound 40, 4-Bromo-2-[(5-nitrothiazol-2-yl)mercapto]-6-(trifluoromethyl)benzimidazole]",8.6
11,"O=[N+]([O-])c1cnc(Sc2nnc(Nc3ccccc3Cl)s2)s1 [Compound 81, 2-(2-Chlorophenylamino)-5-[(5-nitrothiazol-2-yl)mercapto]-1,3,4-thiadiazole]",34
12,"Cc1cccc(C)c1NC1=CN=C(Sc2ncc([N+](=O)[O-])s2)SN1 [Compound 70, 3-(2,6-dimethylphenylamino)-6-[(5-nitrothiazol-2-yl)mercapto]-1,2,5-thiadiazine]",> 100
13,"O=[N+]([O-])c1cnc(Sc2nnnn2-c2ccc(F)cc2)s1 [Compound 54, 1-(4-Fuorophenyl)-5-[(5-nitrothiazol-2-yl)mercapto]tetrazole]",42
14,"O=CNc1nnc(Sc2ncc([N+](=O)[O-])s2)s1 [Compound 22, 2-Formamido-5-[(5-nitrothiazol-2-yl)mercapto]-1,3,4-thiadiazole]",29
15,"Cc1ccc(Cl)cc1Nc1nnc(Sc2ncc([N+](=O)[O-])s2)s1 [Compound 77, 2-(5-Chloro-2-methylphenylamino)-5-[(5-nitrothiazol-2-yl)mercapto]-1,3,4-thiadiazole]",5
16,"CCOC(=O)c1nc(Sc2ncc([N+](=O)[O-])s2)[nH]c1C(=O)OCC [Compound 48, 4,5-Di(ethoxycarbonyl)-2-[(5-nitrothiazol-2-yl)mercapto]imidazole]",> 100
17,"CCOC(=O)c1cnc(Sc2ncc([N+](=O)[O-])s2)n1C [Compound 44, 4-Ethoxycarbonyl-3-methyl-2-[(5-nitrothiazol-2-yl)mercapto]imidazole]",7.6
18,"CCOC(=O)CSc1nnc(Sc2nnc(Sc3ncc([N+](=O)[O-])s3)s2)s1 [Compound 25, 2-[(Ethoxycarbonyl)methylmercapto]-5-[[2-[(5-nitrothiazol-2-yl)mercapto]-1,3,4-thiadiazol-5-yl]mercapto]-1,3,4-thiadiazole]",48
19,"O=[N+]([O-])c1cnc(Sc2nnc(SCC3CC3)s2)s1 [Compound 62, 2-Cyclopropylmethylmercapto-5-[(5-nitrothiazol-2-yl)mercapto]-1,3,4-thiadiazole]",> 100
20,"CCn1nnnc1Sc1ncc([N+](=O)[O-])s1 [Compound 34, 1-Ethyl-5-[(5-nitrothiazol-2-yl)mercapto]tetrazole]",33
21,"O=C1CCCc2nc(Sc3ncc([N+](=O)[O-])s3)ncc21 [Compound 68, 2-[(5-Nitrothiazol-2-yl)mercapto]cyclohexylpyrimid-5-one]",> 100
